Measured values published in PubChem BioAssay AID1508612.

Test: passive permeability, PAMPA, ADME assay (AID 1508612)
Conditions: pH 7.4, 30.0 min, 50.0 µM

| SMILES | Papp |
| --- | --- |
| O=C1Nc2ccccc2/C1=C\c1ccc(C(=O)O)cc1 | 3.96 ×10⁻⁶ cm/s |
| CC1CCN(C(=O)c2ccc(-c3ccc(N4CCSCC4)nc3)cc2)CC1 | > 1000 ×10⁻⁶ cm/s |
| O=C1CCCCc2cc(O)c(O)cc21 | 20.9 ×10⁻⁶ cm/s |
| O=C(CCS(=O)(=O)c1nc(-c2cccs2)cc(C(F)(F)F)n1)Nc1ccc(OC(F)(F)F)cc1 | 5.76 ×10⁻⁶ cm/s |
| CCN(CC)C(=O)c1ccc(O)c(OC)c1 | 482 ×10⁻⁶ cm/s |
| COc1ccc(-c2csc(NC(=O)c3ccccc3NS(=O)(=O)c3ccc(C)cc3)n2)cc1 | 7.7 ×10⁻⁶ cm/s |
| CCOC(=O)c1ccc(N2C(=O)c3n[nH]c(-c4cccs4)c3C2c2ccc(OCC)cc2)cc1 (stereo not drawn) | 739 ×10⁻⁶ cm/s |
| CCCSc1nc(N[C@@H]2C[C@H]2c2ccc(F)c(F)c2)c2nnn([C@@H]3C[C@H](OCCO)[C@@H](O)[C@H]3O)c2n1 | 776 ×10⁻⁶ cm/s |
| Oc1ccc(C(=S)N2CCN(c3cccc(Cl)c3)CC2)cc1 | 677 ×10⁻⁶ cm/s |
| Cc1cnc(-c2ccccc2C(C)C)nc1NCC1CCN(c2cccnc2)CC1 | > 1000 ×10⁻⁶ cm/s |
| O=C(Nc1ccc([S+](=O)([O-])Nc2nccs2)cc1)c1ccccn1 | 3 ×10⁻⁶ cm/s |
| CC1CC(C)(C)N(C(=O)CN2C(=O)c3ccccc3C2=O)c2ccccc21 (stereo not drawn) | > 1000 ×10⁻⁶ cm/s |
| Nc1nc2c(s1)C(c1ccc(F)c(F)c1)CC(=O)N2 (stereo not drawn) | 265 ×10⁻⁶ cm/s |
| O=C(O)c1ccnc2cc(-c3nc4ccccc4n3CCN3CCCCC3)sc12 | 4 ×10⁻⁶ cm/s |
| CCc1ccc(NC(=O)[C@H](Cc2c[nH]c3ccccc23)NC(=O)[C@@H]2Cc3ccccc3CN2)cc1 | 111 ×10⁻⁶ cm/s |
| O=C1NC(=S)NC(=O)C1=Cc1cccn1-c1ccc(O)cc1 | 44.1 ×10⁻⁶ cm/s |
| COC(=O)C1=COC(C)C2CN3CCc4c([nH]c5cc(OC)c(OC)cc45)C3CC12 (stereo not drawn) | 366 ×10⁻⁶ cm/s |
| O=C(c1ccc2c(c1)ncn2-c1ccc(Cl)cc1)N1CCCCC1 | > 1000 ×10⁻⁶ cm/s |
| COc1ccc(CN(C2CCCCC2C)S(=O)(=O)c2ccc(S(=O)(=O)N(C)C)cc2)cc1OC (stereo not drawn) | 18.8 ×10⁻⁶ cm/s |
| Cc1cccc2c1NC(=O)/C2=C/c1cc(Cl)c(O)c(Cl)c1 | 66.3 ×10⁻⁶ cm/s |
| CN1CCN(Cc2ccc(-c3ccc(C(C)(C)C#N)cc3)nc2)CC1 | > 1000 ×10⁻⁶ cm/s |
| COc1cc2c3cc1Oc1c(O)c(OC)cc4c1[C@@H](Cc1ccc(cc1)Oc1cc(ccc1O)C[C@H]3N(C)CC2)N(C)CC4 | 327 ×10⁻⁶ cm/s |

| SMILES | Papp |
| --- | --- |
| Cc1ccc(S(=O)(=O)Nc2cnccc2C(=O)Nc2nc(-c3ccccc3)cs2)cc1 | 724 ×10⁻⁶ cm/s |
| Cc1c(Cl)cccc1NC(=O)CNS(=O)(=O)c1cccs1 | 115 ×10⁻⁶ cm/s |
| O=C(Nc1ccc(OC(F)(F)Cl)cc1)c1cnc(N2CC[C@@H](O)C2)c(-c2ccn[nH]2)c1 | 14.6 ×10⁻⁶ cm/s |
| N=c1c2c(n(Cc3ccccc3)c3c1CCC3)CCC2 | < 1 ×10⁻⁶ cm/s |
| O=C(Nc1cccc(F)c1)c1cc(-c2ccc[nH]2)n[nH]1 | 136 ×10⁻⁶ cm/s |
| COc1ccc(NC(=O)c2[nH]c(C)c(C(C)=O)c2C)cc1 | 377 ×10⁻⁶ cm/s |
| CN(C)C(=O)c1cccc(-c2csc(N3CCC(C(N)=O)CC3)n2)c1 | 30.5 ×10⁻⁶ cm/s |
| CCc1oc2ccccc2c1C(=O)c1cc(Br)c(O)c(Br)c1 | 62 ×10⁻⁶ cm/s |
| Cn1ccc2c(C(=O)NCc3cccnc3)nc(-c3ccccc3C#N)cc21 | 732 ×10⁻⁶ cm/s |
| O=C1CCCC2=C1C(c1[nH]ncc1Cl)N=C(Nc1nc3cc(F)ccc3o1)N2 (stereo not drawn) | 647 ×10⁻⁶ cm/s |
| CNc1oc(-c2ccc(-c3ccccc3)cc2)nc1C#N | > 1000 ×10⁻⁶ cm/s |
| Cc1ccc(/C=C/c2nc3ccccc3n2S(=O)(=O)c2cccc(Cl)c2)cc1 | 11.5 ×10⁻⁶ cm/s |
| CC1=C(C(=O)Nc2nncs2)C2(CCCC2)N=C(Nc2nc3ccccc3o2)N1 | < 1 ×10⁻⁶ cm/s |
| COc1ccccc1Nc1ccnc(N2CCN(C(=O)c3ccccc3Cl)CC2)n1 | 173 ×10⁻⁶ cm/s |
| Cc1ccc(C(=O)N2CCc3c(nc4cc(-c5ccccc5)[nH]n4c3=O)C2)cn1 | < 1 ×10⁻⁶ cm/s |
| NC(=O)C1CCN(c2nc(-c3ccc4ccccc4c3)cs2)CC1 | 406 ×10⁻⁶ cm/s |
| NC(=O)C1CCN(c2nc(-c3cccc([N+](=O)[O-])c3)cs2)CC1 | 568 ×10⁻⁶ cm/s |
| CC1=C(C(=O)Nc2ccccc2)C(c2ccc[nH]2)n2ncnc2N1 (stereo not drawn) | 80 ×10⁻⁶ cm/s |
| NC(=O)C1CCN(c2nc(-c3ccc([N+](=O)[O-])cc3)cs2)CC1 | 604 ×10⁻⁶ cm/s |
| O=C(NCCCCc1ccccc1)C1CCN(c2nc(-c3ccc(Br)cc3)cs2)CC1 | 5.3 ×10⁻⁶ cm/s |
| Brc1ccc(-c2csc(N3CCOCC3)n2)cc1 | < 1 ×10⁻⁶ cm/s |
